Each structure is given as a SMILES string. Where two headings read alike, the source gives them in different places.

The results in this text go back to US10206399B2, “Herbicidal composition comprising uracil compound as active ingredient” (Dongbu Farm Hannong Co., Ltd., priority 2012, dated 2019).

Series [1] has as its system Digitaria sanguinalis. The following applies: for Digitaria sanguinalis mortality, measured value: 20 days after treatment; for plant mortality, measured value: Digitaria sanguinalis.
Excerpt: (§1) X is % damage by uracil compound (a) of formula 1 at the rate of application of p kg/ha; Y is % damage by conventional herbicidal compound (b) at the rate of application of q kg/ha; and E is the expected damage caused by compounds (a) and (b) at a rate of application of p and q kg/ha.
(§2) The expected activity for a given combination of two herbicides can be calculated using equation 1 above.
The test system of series [2] is Aeschynomene indica. Kind of series: whole plant or invertebrate. The following applies: for pest or weed control at 50 g/ha: read-out: Data (measured value) Aeschynomene indica, 50 g/ha; for pest or weed control at 100 g/ha: read-out: Data (measured value) Aeschynomene indica, 100 g/ha; for pest or weed control at 200 g/ha: read-out: Data (measured value) Aeschynomene indica, 200 g/ha; for pest or weed control at 150 g/ha: read-out: plant mortality, measured value, 150 g/ha; for pest or weed control at 300 g/ha: read-out: plant mortality, measured value, 300 g/ha; for pest or weed control at 25 g/ha: read-out: Data (measured value) Aeschynomene indica, 25 g/ha.
Excerpt: as §1, §2

In series [3] the test system is Xanthium spinosum. The experiment in a line: whole plant or invertebrate. The note with it: for pest or weed control at 50 g/ha: read-out: Data (measured value) Xanthium spinosum, 50 g/ha; for pest or weed control at 100 g/ha: read-out: Data (measured value) Xanthium spinosum, 100 g/ha; for pest or weed control at 200 g/ha: read-out: Data (measured value) Xanthium spinosum, 200 g/ha; for pest or weed control at 150 g/ha: read-out: plant mortality, measured value, 150 g/ha; for pest or weed control at 300 g/ha: read-out: plant mortality, measured value, 300 g/ha; for pest or weed control at 25 g/ha: read-out: Data (measured value) Xanthium spinosum, 25 g/ha.
Excerpt: as §1, §2

The test system of series [4] is Abutilon theophrasti. The experiment in a line: whole plant or invertebrate. The following applies: for pest or weed control at 50 g/ha: read-out: Data (measured value) Abutilon theophrasti, 50 g/ha; for pest or weed control at 100 g/ha: read-out: Data (measured value) Abutilon theophrasti, 100 g/ha; for pest or weed control at 200 g/ha: read-out: Data (measured value) Abutilon theophrasti, 200 g/ha; for pest or weed control at 150 g/ha: read-out: plant mortality, measured value, 150 g/ha; for pest or weed control at 300 g/ha: read-out: plant mortality, measured value, 300 g/ha; for pest or weed control at 25 g/ha: read-out: Data (measured value) Abutilon theophrasti, 25 g/ha.
Excerpt: as §1, §2

Series [5] has as its system Echinochloa crus. The note with it: for Echinochloa crus mortality, measured value: 20 days after treatment; for plant mortality, measured value: Echinochloa crus.
Excerpt: as §1, §2
Setting [6] is: 480 h, read-out: Aeschynomene indica mortality, measured value.
The mark [7] stands for this setting: read-out: plant mortality, measured value, 75 g/ha.
Where [8] appears, read: 480 h, read-out: Xanthium spinosum mortality, measured value.
The mark [9] stands for this setting: 480 h, read-out: Abutilon theophrasti mortality, measured value.
The mark [10] stands for this setting: read-out: plant mortality, measured value, 600 g/ha.

Regarding `Nc1c(Cl)c(F)nc(OCC(=O)O)c1Cl` [Fluroxypyr], the “Data (measured value) Digitaria sanguinalis” value in series [1] (50 g/ha), in series [1] (100 g/ha) and in series [1] (200 g/ha) was 0 throughout. Further, the pest or weed control at 50 g/ha came out at 13% in series [2], 7% in series [3] and 9% in series [4]. Moreover, the pest or weed control at 100 g/ha came out at 27% in series [2], 23% in series [3] and 26% in series [4]. The pest or weed control at 200 g/ha in series [2] was 63%; in series [3] it was 54%; in series [4], 53%. In addition, the “Data (measured value) Echinochloa crus” value in series [5] (50 g/ha), in series [5] (100 g/ha) and in series [5] (200 g/ha) was 0 each time.
Regarding `CP(=O)(O)CCC(N)C(=O)O` (stereo not drawn) [Glufosinate, reference compound], the entries for the “Digitaria sanguinalis mortality, measured value” (shortened to “Digitaria sanguinalis mortality”) in series [1] (75 g/ha), in series [1] (150 g/ha) and in series [1] (300 g/ha) were 11%, 27% and 57%, respectively. The “plant mortality, measured value” worked out at 11 in series [1] (75 g/ha); 27 in series [1] (150 g/ha); 57 in series [1] (300 g/ha); 15 in series [5] (75 g/ha); 29 in series [5] (150 g/ha); 60 in series [5] (300 g/ha). Also, the results for the mortality at 75 g/ha in series [2] (setting [6]), in series [3] (setting [8]) and in series [4] (setting [9]) were 5%, 13% and 7%, respectively. Besides, the values for the mortality at 150 g/ha in series [2] (setting [6]), in series [3] (setting [8]) and in series [4] (setting [9]) were 18%, 25% and 25%, respectively. The results for the mortality at 300 g/ha in series [2] (setting [6]), in series [3] (setting [8]) and in series [4] (setting [9]) were 46%, 56% and 49%, respectively. The pest or weed control at 75 g/ha stood at 5% in series [2] (setting [7]), 13% in series [3] (setting [7]) and 7% in series [4] (setting [7]). The pest or weed control at 150 g/ha was determined as 18% in series [2], 25% in series [3] and 25% in series [4]. For the same compound, the pest or weed control at 300 g/ha in series [2] is 46%; in series [3], 56%; in series [4], 49%. Moreover, the “Echinochloa crus mortality, measured value” (“Echinochloa crus mortality” for short) in series [5] (75 g/ha) is 15%; in series [5] (150 g/ha), 29%; in series [5] (300 g/ha) it was 60%.
In the case of `O=C(O)CNCP(=O)(O)O` [Glyphosate, reference compound], the “Digitaria sanguinalis mortality” value in series [1] (150 g/ha) came to 8%; in series [1] (300 g/ha), 18%; in series [1] (600 g/ha), 46%. For the same compound, the “plant mortality, measured value” stood at 8 in series [1] (150 g/ha); 18 in series [1] (300 g/ha); 46 in series [1] (600 g/ha); 12 in series [5] (150 g/ha); 23 in series [5] (300 g/ha); 48 in series [5] (600 g/ha). Further, the mortality (commonly the percentage killed) at 150 g/ha turned out to be 9% in series [2] (setting [6]), 11% in series [3] (setting [8]) and 8% in series [4] (setting [9]). Moreover, the mortality at 300 g/ha is 22% in series [2] (setting [6]), 30% in series [3] (setting [8]) and 27% in series [4] (setting [9]). The mortality at 600 g/ha in series [2] (setting [6]) came out at 47%; in series [3] (setting [8]), 64%; in series [4] (setting [9]), 59%. For the same compound, the results for the pest or weed control at 150 g/ha in series [2], in series [3] and in series [4] were 9%, 11% and 8%, respectively. Moreover, the pest or weed control at 300 g/ha was found to be 22% in series [2], 30% in series [3] and 27% in series [4]. Besides, the pest or weed control at 600 g/ha in series [2] (setting [10]) came to 47%; in series [3] (setting [10]), 64%; in series [4] (setting [10]) it was 59%. The figures for the “Echinochloa crus mortality” value in series [5] (150 g/ha), in series [5] (300 g/ha) and in series [5] (600 g/ha) were 12%, 23% and 48%, respectively.
Consider `CC(Oc1ccc(Oc2ncc(C(F)(F)F)cc2Cl)cc1)C(=O)O` (stereo not drawn) [Haloxyfop, reference compound], for which the “Digitaria sanguinalis mortality” value was found to be 14% in series [1] (12.5 g/ha), 29% in series [1] (25 g/ha) and 57% in series [1] (50 g/ha). For the same compound, the mortality at 12.5 g/ha in series [2] (setting [6]), in series [3] (setting [8]) and in series [4] (setting [9]) was 0% in each case. In addition, the mortality at 25 g/ha in series [2] (setting [6]), in series [3] (setting [8]) and in series [4] (setting [9]) was 0% in each case. The mortality at 50 g/ha in series [2] (setting [6]), in series [3] (setting [8]) and in series [4] (setting [9]) was 0% throughout. In addition, the “Echinochloa crus mortality” value stood at 11% in series [5] (12.5 g/ha), 28% in series [5] (25 g/ha) and 58% in series [5] (50 g/ha).
For the compound `CCc1cnc(C2=NC(C)(C(C)C)C(=O)N2)c(C(=O)O)c1` (stereo not drawn) [Imazethapyr], the “Data (measured value) Digitaria sanguinalis” value is listed as 11 in series [1] (25 g/ha), 26 in series [1] (50 g/ha) and 62 in series [1] (100 g/ha). Besides, the pest or weed control at 25 g/ha in series [2] stood at 11%; in series [3], 9%; in series [4], 9%. Also, the pest or weed control at 50 g/ha in series [2] stood at 25%; in series [3], 20%; in series [4], 24%. Further, the figures for the pest or weed control at 100 g/ha in series [2], in series [3] and in series [4] were 54%, 47% and 58%, respectively. For the same compound, the “Data (measured value) Echinochloa crus” value in series [5] (25 g/ha) is reported as 11; in series [5] (50 g/ha), 26; in series [5] (100 g/ha), 53.
With `Cc1cc(Cl)ccc1OC(C)C(=O)O` (stereo not drawn) [Mecoprop], the “Data (measured value) Digitaria sanguinalis” value in series [1] (200 g/ha), in series [1] (400 g/ha) and in series [1] (800 g/ha) was 0 throughout. The pest or weed control at 200 g/ha in series [2] came to 8%; in series [3] it was 9%; in series [4], 14%. Besides, the pest or weed control at 400 g/ha in series [2] (read-out: Data (measured value) Aeschynomene indica, 400 g/ha) was 24%; in series [3] (read-out: Data (measured value) Xanthium spinosum, 400 g/ha) it was 19%; in series [4] (read-out: Data (measured value) Abutilon theophrasti, 400 g/ha) it was 29%. In addition, the pest or weed control at 800 g/ha stood at 55% in series [2] (read-out: Data (measured value) Aeschynomene indica, 800 g/ha); 45% in series [3] (read-out: Data (measured value) Xanthium spinosum, 800 g/ha); 64% in series [4] (read-out: Data (measured value) Abutilon theophrasti, 800 g/ha). In addition, the “Data (measured value) Echinochloa crus” value in series [5] (200 g/ha), in series [5] (400 g/ha) and in series [5] (800 g/ha) was 0 in each case.
With `Nc1c(Cl)c(Cl)nc(C(=O)O)c1Cl` [Picloram], the “Data (measured value) Digitaria sanguinalis” value in series [1] (25 g/ha), in series [1] (50 g/ha) and in series [1] (100 g/ha) was 0 each time. For the same compound, the pest or weed control at 25 g/ha in series [2], in series [3] and in series [4] was 9% each time. The pest or weed control at 50 g/ha came out at 21% in series [2], 26% in series [3] and 28% in series [4]. The pest or weed control at 100 g/ha in series [2] was 52%; in series [3], 56%; in series [4], 65%. For the same compound, the “Data (measured value) Echinochloa crus” value in series [5] (25 g/ha), in series [5] (50 g/ha) and in series [5] (100 g/ha) was 0 in each case.
